# Values quoted from earlier work in US7659260B2, “Tamponade compositions and methods for retinal repair” (priority 2005, dated 2010).
# Tests used:
# [1] = reportedly; unless ingested in very large amounts
# [2] = at 25° C.
compound,measurement,setting,value
"[2H]O[2H] [Heavy water, deuterium-containing heavy water (D2O)]",toxicity,[1],"non-toxic, unless ingested in very large amounts"
same,relative density,[2],1.1044
